Publication PMC12423301, “Astrocytic monoamine oxidase B (MAOB)–gamma-aminobutyric acid (GABA) axis as a molecular brake on repair following spinal cord injury” (Signal Transduction and Targeted Therapy, 2025)

Legend:
[1] = system: rat SCI model; test: BBB locomotor test in rat SCI model; type: in vivo, Sprague-Dawley (SD) rats; conditions: for average BBB score: at PI 10w
Experimental: For the establishment of the mouse and rat SCI models, we followed methods consistent with those of previous studies.[65]–[67] In mice, a laminectomy was performed at thoracic level 10 (T10), and self-closing forceps (11485-11, Fine Science Tools; 0.10 × 0.06 mm tip, 11 cm) were applied to the exposed spinal cord for 3 s to induce injury. In rats, a laminectomy was performed at thoracic level 9 (T9), followed by the application of the same self-closing forceps (11485-11, Fine Science Tools) for 10 s. Each “Sham” group or “SCI” group indicates animals operated by only laminectomy or SCI, respectively.
(§1) (S)-2-(((4’-Trifluoromethylbiphenyl-4-yl)methyl)amino)propanamide methane-sulfonate (KDS2010) was dissolved in distilled water. For SD rats, KDS2010 was administered via the drinking water ad libitum. […] To evaluate dose-dependent effects, additional groups received 20 mg/kg/day or 30 mg/kg/day starting at PI 2 weeks. To achieve consistent exposure across animals, we meticulously monitored the daily water intake and body weight of each rat throughout the study. As shown in the Extended Data (Supplementary Table 1), water consumption was calculated weekly via a formula based on body weight (e.g., d.w = weight × 0.09 at week 0; gradually tapering to weight × 0.075 by weeks 8–9). Importantly, all animals were confirmed to have consumed the entirety of the provided medicated water each day, ensuring full ingestion of the intended dose (10 mg/kg/day for the majority of groups, and 20/30 mg/kg/day for the dose-dependent experiments).
Behavioral test was performed every week for a total of 11 weeks (1 week before and 10 weeks after the surgical operation) to assess locomotor recovery. The BBB motor score[22] or BMS score[17] was used to evaluate the quality of hindlimb movement during open field locomotion in rats or mice, respectively. In the first recovery phase, the range of joint movement and the presence of the foot closure on the floor were checked. In the second phase, the recovery of weighted stepping was checked. In the third phase, gait coordination and tail movement were assessed. These scores are “ordinal and the magnitude of behavioral change between ranks may not be consistent,” as originally described.[17] To perform the group allocation in a blinded manner during data collection, animal preparation and behavior tests were performed by at least two different investigators.
In the BBB locomotor test with drug administration beginning at PI 2w, the animals were initially subjected to injury, and then divided into two groups at PI 2w based on the basis of similar averaged BBB scores. Subsequently, these groups were treated with either the vehicle (SCI + V) or the drug (SCI+drug) from PI 2w. To exclude incompletely generated severe rat SCI animals, we established the following criteria: a score difference of more than 4 between PI 1w and 2w, and a score exceeding 8 at PI 2w.

[2] = system: Parkinson’s disease mouse model; conditions: cited from earlier work
[3] = Body weight of rats on medicated drinking water; type: in vivo, rat
Experimental: as §1

[4] = Preclinical pharmacokinetics in monkeys; conditions: cynomolgus monkey, in vivo, iv, 5 mg/kg
[5] = system: APP/PS1 transgenic mice; test: Tonic GABA current, neuronal firing and DAO compensation in APP/PS1 mice; type: in vivo, mouse

SMILES: CS(=O)(=O)O.C[C@H](NCc1ccc(-c2ccc(C(F)(F)F)cc2)cc1)C(N)=O [KDS2010, (S)-2-(((4’-Trifluoromethylbiphenyl-4-yl)methyl)amino)propanamide methane-sulfonate]
- BBB locomotor scores ([1]; 10, 20, and 30 mpk from subacute phase, at 10w PI): dose-dependent improvement
- average BBB score ([1]; SCI + KDS 2w: 10 mg/kg/day in drinking water from PI 2w (subacute)): 10.62
- recovery in BBB locomotor test and ladder rung test ([1]; SCI + KDS 6w: 10 mpk from chronic phase (PI 6w)): significant motor recovery
- average BBB score ([1]; SCI + KDS 1 d/Re: 10 mpk from acute phase (PI 1 d), recovery subgroup): 15.36
- behavioral recovery in BBB locomotor test ([1]; SCI+KDS1d/No: 10 mpk from acute phase, no-recovery subgroup): did not show any behavioral recovery
- pharmacologically active dose (PAD) ([1]; SD rats, for 8 weeks): 10 mpk
- motor impairment [2]: reverse
- Weekly change in body weight ([3]; SCI/KDS 2w 20mpk, 0w): 0.00 g
- Weekly change in body weight ([3]; SCI/KDS 2w 20mpk, 1w): 29.33 g
- Weekly change in body weight ([3]; SCI/KDS 2w 20mpk, 2w): 13.61 g
- Weekly change in body weight ([3]; SCI/KDS 2w 20mpk, 3w): 54.00 g
- Weekly change in body weight ([3]; SCI/KDS 2w 20mpk, 4s): 16.28 g
- Weekly change in body weight ([3]; SCI/KDS 2w 20mpk, 5s): 31.61 g
- Weekly change in body weight ([3]; SCI/KDS 2w 20mpk, 6s): 12.56 g
- Weekly change in body weight ([3]; SCI/KDS 2w 20mpk, 7w): 24.17 g
- Weekly change in body weight ([3]; SCI/KDS 2w 20mpk, 8w): 13.00 g
- Weekly change in body weight ([3]; SCI/KDS 2w 20mpk, 9w): 10.89 g
- Weekly change in body weight ([3]; SCI/KDS 2w 30mpk, 0w): 0.00 g
- Weekly change in body weight ([3]; SCI/KDS 2w 30mpk, 1w): 34.43 g
- Weekly change in body weight ([3]; SCI/KDS 2w 30mpk, 2w): 10.86 g
- Weekly change in body weight ([3]; SCI/KDS 2w 30mpk, 3w): 39.90 g
- Weekly change in body weight ([3]; SCI/KDS 2w 30mpk, 4s): 17.36 g
- Weekly change in body weight ([3]; SCI/KDS 2w 30mpk, 5s): 22.40 g
- Weekly change in body weight ([3]; SCI/KDS 2w 30mpk, 6s): 10.84 g
- Weekly change in body weight ([3]; SCI/KDS 2w 30mpk, 7w): 19.91 g
- Weekly change in body weight ([3]; SCI/KDS 2w 30mpk, 8w): 17.56 g
- Weekly change in body weight ([3]; SCI/KDS 2w 30mpk, 9w): 3.43 g
- Weekly change in body weight ([3]; SCI/KDS 2w, 0w): 0.00 g
- Weekly change in body weight ([3]; SCI/KDS 2w, 1w): 47.67 g
- Weekly change in body weight ([3]; SCI/KDS 2w, 2w): 16.00 g
- Weekly change in body weight ([3]; SCI/KDS 2w, 3w): 33.67 g
- Weekly change in body weight ([3]; SCI/KDS 2w, 4s): 31.00 g
- Weekly change in body weight ([3]; SCI/KDS 2w, 5s): 31.33 g
- Weekly change in body weight ([3]; SCI/KDS 2w, 6s): 16.67 g
- Weekly change in body weight ([3]; SCI/KDS 2w, 7w): 18.33 g
- Weekly change in body weight ([3]; SCI/KDS 2w, 8w): 11.67 g
- Weekly change in body weight ([3]; SCI/KDS 2w, 9w): 7.17 g
- Weekly change in body weight ([3]; SCI/KDS 2w, 10w): 14.50 g
- Weekly change in body weight ([3]; SCI/KDS 2w, 11w): 8.00 g
- Weekly change in body weight ([3]; SCI/KDS 2w, 12w): 1.50 g
- Weekly change in body weight ([3]; SCI/KDS 2w, 13w): 7.50 g
- Weekly change in body weight ([3]; SCI/KDS 6w, 0w): 0.00 g
- Weekly change in body weight ([3]; SCI/KDS 6w, 1w): 24.00 g
- Weekly change in body weight ([3]; SCI/KDS 6w, 2w): 27.50 g
- Weekly change in body weight ([3]; SCI/KDS 6w, 3w): 36.00 g
- Weekly change in body weight ([3]; SCI/KDS 6w, 4s): 31.50 g
- Weekly change in body weight ([3]; SCI/KDS 6w, 5s): 14.50 g
- Weekly change in body weight ([3]; SCI/KDS 6w, 6s): 13.00 g
- Weekly change in body weight ([3]; SCI/KDS 6w, 7w): 17.50 g
- Weekly change in body weight ([3]; SCI/KDS 6w, 8w): 7.00 g
- Weekly change in body weight ([3]; SCI/KDS 6w, 9w): 13.00 g
- Weekly change in body weight ([3]; SCI/KDS 6w, 10w): 11.00 g
- Weekly change in body weight ([3]; SCI/KDS 6w, 11w): 8.00 g
- Weekly change in body weight ([3]; SCI/KDS 6w, 12w): 7.00 g
- Weekly change in body weight ([3]; SCI/KDS 6w, 13w): 8.00 g
- Weekly change in body weight ([3]; SCI/KDS 1d, 0w): 0.00 g
- Weekly change in body weight ([3]; SCI/KDS 1d, 1w): -44.55 g
- Weekly change in body weight ([3]; SCI/KDS 1d, 2w): 21.82 g
- Weekly change in body weight ([3]; SCI/KDS 1d, 3w): 23.03 g
- Weekly change in body weight ([3]; SCI/KDS 1d, 4s): 50.91 g
- Weekly change in body weight ([3]; SCI/KDS 1d, 5s): 28.03 g
- Weekly change in body weight ([3]; SCI/KDS 1d, 6s): 16.82 g
- Weekly change in body weight ([3]; SCI/KDS 1d, 7w): 19.85 g
- Weekly change in body weight ([3]; SCI/KDS 1d, 8w): 14.70 g
- Weekly change in body weight ([3]; SCI/KDS 1d, 9w): 7.88 g
- Weekly change in body weight ([3]; Sham/KDS 2w, 0w): 0.00 g
- Weekly change in body weight ([3]; Sham/KDS 2w, 1w): 33.00 g
- Weekly change in body weight ([3]; Sham/KDS 2w, 2w): 17.00 g
- Weekly change in body weight ([3]; Sham/KDS 2w, 3w): 32.00 g
- Weekly change in body weight ([3]; Sham/KDS 2w, 4s): 31.00 g
- Weekly change in body weight ([3]; Sham/KDS 2w, 5s): 21.00 g
- Weekly change in body weight ([3]; Sham/KDS 2w, 6s): 8.00 g
- Weekly change in body weight ([3]; Sham/KDS 2w, 7w): 25.00 g
- Weekly change in body weight ([3]; Sham/KDS 2w, 8w): 10.00 g
- Weekly change in body weight ([3]; Sham/KDS 2w, 9w): 10.00 g
- Weekly change in body weight ([3]; Sham/KDS 1d, 0w): 0.00 g
- Weekly change in body weight ([3]; Sham/KDS 1d, 1w): 26.67 g
- Weekly change in body weight ([3]; Sham/KDS 1d, 2w): 3.33 g
- Weekly change in body weight ([3]; Sham/KDS 1d, 3w): 30.00 g
- Weekly change in body weight ([3]; Sham/KDS 1d, 4s): 50.00 g
- Weekly change in body weight ([3]; Sham/KDS 1d, 5s): 25.00 g
- Weekly change in body weight ([3]; Sham/KDS 1d, 6s): 21.67 g
- Weekly change in body weight ([3]; Sham/KDS 1d, 7w): 18.33 g
- Weekly change in body weight ([3]; Sham/KDS 1d, 8w): 8.33 g
- Weekly change in body weight ([3]; Sham/KDS 1d, 9w): 23.33 g
- AUC(0-inf) [4]: 17900 ± 2460 ng·h/mL
- half-life ([4]; t1/2): 8.65 ± 0.97 h
- tonic GABA current in granule cells of the dentate gyrus ([5]; 1 mg/kg and 10 mg/kg vs induced control group): dose-dependent reduction
- neuronal firing ([5]; 4-week repeated dosing test, at 2 weeks and 4 weeks): maintained at a level similar to that of the normal group
- DAO (diamine oxidase) compensatory mechanism ([5]; long-term administration): did not induce
